The results in this text go back to ChEMBL document CHEMBL3600292, “Anti-HIV screening for cell-penetrating peptides using chloroquine and identification of anti-HIV peptides derived from matrix proteins” (Bioorg Med Chem, 2015).

Starred links: 1 amine or outer side, 2 acyl side, 3 side chain; linkers in the order of their positions; H or OH if unused. Positions of bridges follow the written chain, without caps; N, C: chain ends. Non-standard residues stand in square brackets, D forms with d. Residues, ends and D or L forms follow the SMILES beside them. Chains are numbered I, II in the order given. Orn = NCCC[C@H](N)C(=O)O; X1 = O=C(C[*:1])[*:2]

Data set [1] can be described thus: Cytotoxicity against human MT4 cells by MTT assay. Type of data set: cell-based.
Data set [2] is described as follows: Cytotoxicity against human MT4 cells by MTT assay in presence of 5 uM of chloroquine. The format is cell-based.
Data set [3] is described as follows: Cytotoxicity against human PM1 cells expressing CCR5 by MTT assay in presence of 5 uM of chloroquine. Type of data set: cell-based.
The test system of data set [4] is Human immunodeficiency virus 1. Description: Antiviral activity against T-cell line-tropic HIV1 NL4-3 infected in human MT4 cells assessed as inhibition of virus-induced cytopathogenicity after 5 days by MTT assay in presence of 5 uM of chloroquine. The format is functional, organism-based. As to conditions: Human immunodeficiency virus 1, NL4-3, MT4, 120 h.
Data set [5] relates to Human immunodeficiency virus 1. The data set can be described thus: Antiviral activity against macrophage-tropic HIV1 NL(AD8) infected in human PM1 expressing CCR5 cells assessed as inhibition of virus-induced cytopathogenicity after 5 days by MTT assay in presence of 5 uM of chloroquine. The format is functional, organism-based. As to conditions: Human immunodeficiency virus 1, NL(AD8), PM1/CCR5, 120 h.

The test system of data set [6] is Human immunodeficiency virus 1. The data set can be described thus: Antiviral activity against T-cell line-tropic HIV1 NL4-3 infected in human MT4 cells assessed as inhibition of virus-induced cytopathogenicity after 5 days by MTT assay. The note with it: Human immunodeficiency virus 1, NL4-3, MT4, 120 h. The format is functional, organism-based.

Regarding `CC[C@H](C)[C@H](NC(=O)[C@H](CCCNC(=N)N)NC(=O)[C@H](CCC(N)=O)NC(=O)[C@H](Cc1c[nH]cn1)NC(=O)[C@@H](NC(=O)[C@H](CO)NC(=O)[C@H](Cc1ccc(O)cc1)NC(=O)[C@H](CC(C)C)NC(=O)[C@@H](NC(=O)[C@H](C)NC(=O)[C@@H](NC(=O)[C@@H](NC(=O)[C@H](CC(N)=O)NC(=O)[C@H](Cc1ccc(O)cc1)NC(=O)[C@H](CC(C)C)NC(C)=O)[C@@H](C)O)[C@@H](C)CC)C(C)C)C(C)C)C(=O)NCC(=O)N[C@@H](CSCC(=O)N[C@@H](CCCNC(=N)N)C(=O)N[C@@H](CCCN)C(=O)N[C@@H](CCCNC(=N)N)C(=O)N[C@@H](CCCN)C(=O)N[C@@H](CCCNC(=N)N)C(=O)N[C@@H](CCCN)C(=O)N[C@@H](CCCNC(=N)N)C(=O)N[C@@H](CCCN)C(N)=O)C(N)=O` (I: Ac-LYNTIAVLYSVHQRIGC-NH2 / II: R[Orn]R[Orn]R[Orn]R[Orn]-NH2; linker I:17-II:N via X1), the CC50 came out at 11 µM in data set [1], 12 µM in data set [2] and 8.7 µM in data set [3]. The EC50 in data set [4] turned out to be 0.64 µM; in data set [5], 2.8 µM; in data set [6] it was 6.3 µM.

Consider `CC[C@H](C)[C@H](NC(=O)[C@@H](NC(=O)[C@H](CC(N)=O)NC(=O)[C@H](Cc1ccc(O)cc1)NC(=O)[C@H](CC(C)C)NC(=O)[C@H](CO)NC(=O)[C@H](CCCNC(=N)N)NC(=O)[C@H](CC(C)C)NC(=O)[C@H](CCC(=O)O)NC(=O)[C@H](CCC(=O)O)NC(C)=O)[C@@H](C)O)C(=O)N[C@@H](C)C(=O)N[C@H](C(=O)N[C@@H](CC(C)C)C(=O)N[C@@H](Cc1ccc(O)cc1)C(=O)N[C@@H](CO)C(=O)NCC(=O)N[C@@H](CSCC(=O)N[C@@H](CCCNC(=N)N)C(=O)N[C@@H](CCCN)C(=O)N[C@@H](CCCNC(=N)N)C(=O)N[C@@H](CCCN)C(=O)N[C@@H](CCCNC(=N)N)C(=O)N[C@@H](CCCN)C(=O)N[C@@H](CCCNC(=N)N)C(=O)N[C@@H](CCCN)C(N)=O)C(N)=O)C(C)C`, for which the figures for the CC50 in data set [1], in data set [2] and in data set [3] were 9.3 µM, 10 µM and 9.3 µM, respectively. Further, the figures for the EC50 in data set [4], in data set [5] and in data set [6] were over 10 µM, over 9.3 µM and over 9.3 µM, respectively.

`CC[C@H](C)[C@H](NC(=O)[C@@H](NC(=O)[C@H](CC(N)=O)NC(=O)[C@H](Cc1ccc(O)cc1)NC(=O)[C@H](CC(C)C)NC(=O)[C@H](CO)NC(=O)[C@H](CCCNC(=N)N)NC(=O)[C@H](CC(C)C)NC(C)=O)[C@@H](C)O)C(=O)N[C@@H](C)C(=O)N[C@H](C(=O)N[C@@H](CC(C)C)C(=O)N[C@@H](Cc1ccc(O)cc1)C(=O)N[C@@H](CO)C(=O)N[C@H](C(=O)N[C@@H](Cc1c[nH]cn1)C(=O)NCC(=O)N[C@@H](CSCC(=O)N[C@@H](CCCNC(=N)N)C(=O)N[C@@H](CCCN)C(=O)N[C@@H](CCCNC(=N)N)C(=O)N[C@@H](CCCN)C(=O)N[C@@H](CCCNC(=N)N)C(=O)N[C@@H](CCCN)C(=O)N[C@@H](CCCNC(=N)N)C(=O)N[C@@H](CCCN)C(N)=O)C(N)=O)C(C)C)C(C)C`: the CC50 in data set [1] came to 8.5 µM; in data set [2], 10 µM; in data set [3], 5.2 µM. In addition, the EC50 in data set [4] was 4.6 µM; in data set [5], over 5.2 µM; in data set [6], over 8.5 µM.

In the case of `CC[C@H](C)[C@H](NC(=O)[C@H](CCCNC(=N)N)NC(=O)[C@H](CCC(N)=O)NC(=O)[C@H](Cc1c[nH]cn1)NC(=O)[C@@H](NC(=O)[C@H](CO)NC(=O)[C@H](Cc1ccc(O)cc1)NC(=O)[C@H](CC(C)C)NC(=O)[C@@H](NC(=O)[C@H](C)NC(=O)[C@@H](NC(=O)[C@@H](NC(=O)[C@H](CC(N)=O)NC(=O)[C@H](Cc1ccc(O)cc1)NC(C)=O)[C@@H](C)O)[C@@H](C)CC)C(C)C)C(C)C)C(=O)N[C@@H](CC(=O)O)C(=O)NCC(=O)N[C@@H](CSCC(=O)N[C@@H](CCCNC(=N)N)C(=O)N[C@@H](CCCN)C(=O)N[C@@H](CCCNC(=N)N)C(=O)N[C@@H](CCCN)C(=O)N[C@@H](CCCNC(=N)N)C(=O)N[C@@H](CCCN)C(=O)N[C@@H](CCCNC(=N)N)C(=O)N[C@@H](CCCN)C(N)=O)C(N)=O` (I: Ac-YNTIAVLYSVHQRIDGC-NH2 / II: R[Orn]R[Orn]R[Orn]R[Orn]-NH2; linker I:17-II:N via X1), the values for the CC50 in data set [1], in data set [2] and in data set [3] were 7 µM, 7.7 µM and 7.6 µM, respectively. The values for the EC50 in data set [4], in data set [5] and in data set [6] were 1.7 µM, 1.4 µM and over 7 µM, respectively.

In the case of `CC[C@H](C)[C@H](NC(=O)[C@H](CCCNC(=N)N)NC(=O)[C@H](CCC(N)=O)NC(=O)[C@H](Cc1c[nH]cn1)NC(=O)[C@@H](NC(=O)[C@H](CO)NC(=O)[C@H](Cc1ccc(O)cc1)NC(=O)[C@H](CC(C)C)NC(=O)[C@@H](NC(=O)[C@H](C)NC(=O)[C@@H](NC(=O)[C@@H](NC(=O)[C@H](CC(N)=O)NC(C)=O)[C@@H](C)O)[C@@H](C)CC)C(C)C)C(C)C)C(=O)N[C@@H](CC(=O)O)C(=O)N[C@H](C(=O)NCC(=O)N[C@@H](CSCC(=O)N[C@@H](CCCNC(=N)N)C(=O)N[C@@H](CCCN)C(=O)N[C@@H](CCCNC(=N)N)C(=O)N[C@@H](CCCN)C(=O)N[C@@H](CCCNC(=N)N)C(=O)N[C@@H](CCCN)C(=O)N[C@@H](CCCNC(=N)N)C(=O)N[C@@H](CCCN)C(N)=O)C(=O)O)C(C)C` (I: Ac-NTIAVLYSVHQRIDVGC-OH / II: R[Orn]R[Orn]R[Orn]R[Orn]-NH2; linker I:17-II:N via X1), the CC50 in data set [1] is 18 µM; in data set [2], 18 µM; in data set [3], 17 µM. For the same compound, the results for the EC50 in data set [4], in data set [5] and in data set [6] were 2 µM, 5.6 µM and over 18 µM, respectively.

On to `CC[C@H](C)[C@H](NC(=O)[C@@H](NC(=O)[C@H](CC(N)=O)NC(=O)[C@H](Cc1ccc(O)cc1)NC(=O)[C@H](CC(C)C)NC(=O)[C@H](CO)NC(C)=O)[C@@H](C)O)C(=O)N[C@@H](C)C(=O)N[C@H](C(=O)N[C@@H](CC(C)C)C(=O)N[C@@H](Cc1ccc(O)cc1)C(=O)N[C@@H](CO)C(=O)N[C@H](C(=O)N[C@@H](Cc1c[nH]cn1)C(=O)N[C@@H](CCC(N)=O)C(=O)N[C@@H](CCCNC(=N)N)C(=O)NCC(=O)N[C@@H](CSCC(=O)N[C@@H](CCCNC(=N)N)C(=O)N[C@@H](CCCN)C(=O)N[C@@H](CCCNC(=N)N)C(=O)N[C@@H](CCCN)C(=O)N[C@@H](CCCNC(=N)N)C(=O)N[C@@H](CCCN)C(=O)N[C@@H](CCCNC(=N)N)C(=O)N[C@@H](CCCN)C(N)=O)C(N)=O)C(C)C)C(C)C` (I: Ac-SLYNTIAVLYSVHQRGC-NH2 / II: R[Orn]R[Orn]R[Orn]R[Orn]-NH2; linker I:17-II:N via X1), for which the CC50 came to 4.8 µM in data set [1], 4.4 µM in data set [2] and 4.6 µM in data set [3]. The EC50 in data set [4] is 1 µM; in data set [5], over 4.6 µM; in data set [6], over 4.8 µM.

With `CC[C@H](C)[C@H](NC(=O)[C@@H](NC(=O)[C@H](CC(N)=O)NC(=O)[C@H](Cc1ccc(O)cc1)NC(=O)[C@H](CC(C)C)NC(=O)[C@H](CO)NC(=O)[C@H](CCCNC(=N)N)NC(=O)[C@H](CC(C)C)NC(=O)[C@H](CCC(=O)O)NC(=O)[C@H](CCC(=O)O)NC(=O)[C@H](CO)NC(C)=O)[C@@H](C)O)C(=O)N[C@@H](C)C(=O)N[C@H](C(=O)N[C@@H](CC(C)C)C(=O)N[C@@H](Cc1ccc(O)cc1)C(=O)NCC(=O)N[C@@H](CSCC(=O)N[C@@H](CCCNC(=N)N)C(=O)N[C@@H](CCCNC(=N)N)C(=O)N[C@@H](CCCNC(=N)N)C(=O)N[C@@H](CCCNC(=N)N)C(=O)N[C@@H](CCCNC(=N)N)C(=O)N[C@@H](CCCNC(=N)N)C(=O)N[C@@H](CCCNC(=N)N)C(=O)N[C@@H](CCCNC(=N)N)C(N)=O)C(N)=O)C(C)C`, the results for the CC50 in data set [1], in data set [2] and in data set [3] were 10 µM, 8.7 µM and 13 µM, respectively. Further, the values for the EC50 in data set [4], in data set [5] and in data set [6] were over 8.7 µM, over 13 µM and over 10 µM, respectively.

Regarding `COC[C@@H](c1ccc(C(F)(F)F)cc1)N1CCN(C2(C)CCN(C(=O)c3c(C)ncnc3C)CC2)C[C@@H]1C` [VICRIVIROC], the CC50 in data set [1], in data set [2] and in data set [3] was over 5 µM throughout. In addition, the EC50 is over 5 µM in data set [4], 0.0049 µM in data set [5] and over 5 µM in data set [6].

As for `CC[C@H](C)[C@H](NC(=O)[C@@H](NC(=O)[C@H](CC(N)=O)NC(=O)[C@H](Cc1ccc(O)cc1)NC(=O)[C@H](CC(C)C)NC(=O)[C@H](CO)NC(=O)[C@H](CCCNC(=N)N)NC(C)=O)[C@@H](C)O)C(=O)N[C@@H](C)C(=O)N[C@H](C(=O)N[C@@H](CC(C)C)C(=O)N[C@@H](Cc1ccc(O)cc1)C(=O)N[C@@H](CO)C(=O)N[C@H](C(=O)N[C@@H](Cc1cnc[nH]1)C(=O)N[C@@H](CCC(N)=O)C(=O)NCC(=O)N[C@@H](CSCC(=O)N[C@@H](CCCNC(=N)N)C(=O)N[C@@H](CCCN)C(=O)N[C@@H](CCCNC(=N)N)C(=O)N[C@@H](CCCN)C(=O)N[C@@H](CCCNC(=N)N)C(=O)N[C@@H](CCCN)C(=O)N[C@@H](CCCNC(=N)N)C(=O)N[C@@H](CCCN)C(N)=O)C(N)=O)C(C)C)C(C)C` (I: Ac-RSLYNTIAVLYSVHQGC-NH2 / II: R[Orn]R[Orn]R[Orn]R[Orn]-NH2; linker I:17-II:N via X1), the CC50 in data set [1] was found to be 9.2 µM; in data set [2], 9.2 µM; in data set [3] it was 8.2 µM. Also, the figures for the EC50 in data set [4], in data set [5] and in data set [6] were 0.85 µM, 1.3 µM and 5.2 µM, respectively.
